Source: patent US4196205A, “3-Acetoxymethyl-7-(iminoacetamido)-cephalosporanic acid derivatives” (priority 1976, dated 1980)
Converted amounts (≈) assume the structure as drawn. Like-named read-outs stand apart in the source and are kept apart here.

Tests used:
[1] = system: Staphylococcus aureus UC 1 128 Pen-Resistant; assay: MIC, dilution in liquid medium; type: cell-based; settings: Staphylococcus aureus
Procedure: (§1) The method used was a dilution of a liquid medium where a series of tubes received the same quantity of a sterile nutritive media and increasing doses of the test compounds were placed therein. Then each tube was seeded with a bacterial strain and was incubated for 24 to 48 hours at 37° C. in an oven. The increasing inhibition was determined by transillumination to determine the minimum inhibiting concentration (MIC in […]) and the results are reported in the following Tables.

[2] = system: Klebsiella pneumoniae Exp. 52 145; assay: MIC, dilution in liquid medium; type: cell-based; settings: for MIC: Klebsiella pneumoniae
Procedure: as §1

[3] = system: Staphylococcus aureus ATCC 5 638 Pen-Sensible = UC 1061; assay: MIC, dilution in liquid medium; type: cell-based
Procedure: as §1

[4] = system: Streptococcus faecalis 99 F 74; assay: MIC, dilution in liquid medium; type: cell-based; settings: Enterococcus faecalis, read-out: M.I.C.
Procedure: as §1

[5] = system: Streptococcus pyogenes A 561; assay: MIC, dilution in liquid medium; type: cell-based; settings: Streptococcus pyogenes
Procedure: as §1

[6] = system: Escherichia Coli Exp. TO26 B6; assay: MIC, dilution in liquid medium; type: cell-based; settings: 48 H
Procedure: as §1

[7] = system: Escherichia Coli Resistant Gentamicine, Tobramycine R 55 123 D; assay: MIC, dilution in liquid medium; type: cell-based; settings: Escherichia coli
Procedure: as §1

[8] = system: Klebsiella pneumoniae 2 536 Resistant Gentamicine; assay: MIC, dilution in liquid medium; type: cell-based; settings: Klebsiella pneumoniae, read-out: M.I.C.
Procedure: as §1

[9] = system: Pseudomonas 3 935 Exp. SG; assay: MIC, dilution in liquid medium; type: cell-based; settings: Pseudomonas, 3935EXP.SG, read-out: M.I.C.
Procedure: as §1

[10] = system: Proteus mirabilis (indol-) A 235; assay: MIC, dilution in liquid medium; type: cell-based
Procedure: as §1

[11] = system: Providencia Du 48; assay: MIC, dilution in liquid medium; type: cell-based; settings: for MIC: Providencia, read-out: M.I.C.
Procedure: as §1

[12] = system: Staphylococcus aureus exp. n° 54 146; assay: MIC, dilution in liquid medium; type: cell-based; settings: Staphylococcus aureus
Procedure: as §1

[13] = system: Serratia Resistant Gentamicine 2 532; assay: MIC, dilution in liquid medium; type: cell-based; settings: read-out: M.I.C.
Procedure: as §1

[14] = system: Escherichia Coli Resistant Tetracycline ATCC 11 303 = UC 1261; assay: MIC, dilution in liquid medium; type: cell-based; settings: Escherichia coli
Procedure: as §1

[15] = system: Escherichia Coli Sensible Tetracycline ATCC 9 637 = 1020; assay: MIC, dilution in liquid medium; type: cell-based; settings: Escherichia coli, read-out: M.I.C.
Procedure: as §1

[16] = system: Streptococcus faecalis 5 432; assay: MIC, dilution in liquid medium; type: cell-based; settings: read-out: M.I.C.
Procedure: as §1

[17] = system: Bacillus subtilis ATCC 6 633; assay: MIC, dilution in liquid medium; type: cell-based; settings: 24 H
Procedure: as §1

[18] = system: Salmonella typhimurium 420; assay: MIC, dilution in liquid medium; type: cell-based; settings: Salmonella enterica, TYPHIMURIUM, read-out: M.I.C.
Procedure: as §1

[19] = system: Proteus vulgaris (indol+) A 232; assay: MIC, dilution in liquid medium; type: cell-based; settings: Proteus vulgaris, read-out: M.I.C.
Procedure: as §1

[20] = system: Proteus Mirabilis A 235; assay: Experimental infection of Proteus Mirabilis in mice; type: in vivo
Procedure: Groups of 10 mice with an average weight of 22 g received intraperitoneally 0.5 ml of a 24 hour old culture in oxoid bouillon of Proteus Mirabilis A 235 diluted 1/4 with distilled water. The mice then received subcutaneously the compound of Examples 11 or 15 one hour and 5 and 24 hours after the infection and the results are reported in the following Table.

Structure (SMILES): CCO/N=C(/C(=O)NC1C(=O)N2C(C(=O)O)=C(COC(C)=O)CSC12)c1csc(N)n1 (stereo not drawn) [Example 15, anti isomer of 3-acetoxymethyl-7-[2-(2-amino-4-thiazolyl)-2-ethoxyiminoacetamido]-ceph-3-eme-4-carboxylic acid]
- MIC ([1]; UC1, 24 h, 24 H): 40 µg/mL (≈ 85.2 µM)
- MIC ([1]; UC1, 48 h, 48 H): 40 µg/mL (≈ 85.2 µM)
- M.I.C. ([2]; 24 H): 40 µg/mL
- M.I.C. ([2]; 48 H): 40 µg/mL
- MIC ([2]; EXP.52145, 24 h, 24 H): 20 µg/mL (≈ 42.6 µM)
- MIC ([2]; EXP.52145, 48 h, 48 H): 20 µg/mL (≈ 42.6 µM)
- MIC ([3]; 24 h): 20 µg/mL (≈ 42.6 µM)
- MIC ([3]; 48 h): 20 µg/mL (≈ 42.6 µM)
- MIC ([4]; 99F74, 24 h): > 100 µg/mL
- MIC ([4]; 99F74, 48 h): > 100 µg/mL
- MIC ([5]; A561, 24 h): 1 µg/mL (≈ 2.13 µM)
- MIC ([5]; A561, 24 h, 24 H, read-out: M.I.C.): 0.4 µg/mL (≈ 0.852 µM)
- MIC ([5]; A561, 48 h): 1 µg/mL (≈ 2.13 µM)
- MIC ([5]; A561, 48 h, 48 H, read-out: M.I.C.): 0.4 µg/mL (≈ 0.852 µM)
- M.I.C. [6]: 40 µg/mL
- MIC ([7]; 24 h): 40 µg/mL (≈ 85.2 µM)
- MIC ([7]; 24 h, read-out: M.I.C.): 100 µg/mL (≈ 213 µM)
- MIC ([7]; 48 h): 40 µg/mL (≈ 85.2 µM)
- MIC ([7]; 48 h, read-out: M.I.C.): 100 µg/mL (≈ 213 µM)
- MIC ([8]; 24 h): > 100 µg/mL
- MIC ([8]; 48 h): > 100 µg/mL
- MIC ([9]; 24 h): > 100 µg/mL
- MIC ([9]; 48 h): > 100 µg/mL
- M.I.C. ([10]; 24 H): 5 µg/mL
- MIC ([10]; Proteus mirabilis, 24 h, read-out: M.I.C.): 10 µg/mL (≈ 21.3 µM)
- M.I.C. ([11]; 24 H): > 100 µg/mL
- MIC ([11]; DU48, 24 h, 24 H): 100 µg/mL (≈ 213 µM)
- MIC ([11]; DU48, 48 h, 48 H): > 100 µg/mL
- MIC ([12]; 24 h): 40 µg/mL (≈ 85.2 µM)
- MIC ([12]; 48 h): 40 µg/mL (≈ 85.2 µM)
- MIC ([13]; 24 h): > 100 µg/mL
- MIC ([13]; 48 h): > 100 µg/mL
- MIC ([14]; 24 h): 20 µg/mL (≈ 42.6 µM)
- MIC ([14]; 24 h, read-out: M.I.C.): 10 µg/mL (≈ 21.3 µM)
- MIC ([14]; 48 h): 20 µg/mL (≈ 42.6 µM)
- MIC ([14]; 48 h, read-out: M.I.C.): 10 µg/mL (≈ 21.3 µM)
- MIC ([15]; ATCC9, 24 h, 24 H): > 100 µg/mL
- MIC ([15]; ATCC9, 48 h, 48 H): > 100 µg/mL
- MIC ([16]; Enterococcus faecalis, 5432, 24 h): > 100 µg/mL
- MIC ([16]; Enterococcus faecalis, 5432, 48 h): > 100 µg/mL
- M.I.C. [17]: 20 µg/mL
- MIC ([17]; Bacillus subtilis, ATCC6, 24 h, read-out: M.I.C.): 10 µg/mL (≈ 21.3 µM)
- MIC ([18]; 24 h): 100 µg/mL (≈ 213 µM)
- MIC ([18]; 48 h): 100 µg/mL (≈ 213 µM)
- MIC ([19]; 24 h): > 100 µg/mL
- MIC ([19]; 48 h): > 100 µg/mL
- MORTALITY AFTER 6H55 ([20]; 0.5 mg subcutaneously): 1
- MORTALITY AFTER 21H30 ([20]; 0.5 mg subcutaneously): 9
- Mice Alive on the 8th day ([20]; 0.5 mg subcutaneously): 0/10
- MORTALITY AFTER 21H30 ([20]; 1 mg subcutaneously): 5
- MORTALITY AFTER 23H10 ([20]; 1 mg subcutaneously): 1
- MORTALITY AFTER 23H30 ([20]; 1 mg subcutaneously): 1
- MORTALITY AFTER 28H ([20]; 1 mg subcutaneously): 2
- MORTALITY AFTER 70H ([20]; 1 mg subcutaneously): 1
- Mice Alive on the 8th day ([20]; 1 mg subcutaneously): 0/10
